Source: patent publication US10849863B2, “Compounds for treating cancer, for administering, and for pharmaceutical compositions” (UNIVERSITY OF LOUISVILLE RESEARCH FOUNDATION, INC., priority 2011, dated 2020)

Key:
HeLa cells [1] = test: Clonogenic viability assay, HeLa cells; type: cell-based, human; settings: for colony formation (clonogenic cytotoxicity): Hela cells (paclitaxel sensitive), colonies counted after 10 days (FIG. 6A)
Procedure: (§1) Clonogenic assays are used to determine the impact of a test compositions on the ability of cells to replicate. Cells are plated at cloning densities (100 and 500 cells per well in a 6-well plate; 3 wells of each cell number), and allowed to attach and stabilize overnight. Cells are then treated in dose-response experiments with test composition(s) (one concentration of test composition per plate) and incubated for 7-10 days to allow colonies of >30 cells to form. Colonies are stained with crystal violet and counted. Colony forming ability is then calculated as a percent of control by setting the mean number of colonies per well of cells treated with vehicle (0.1% DMSO) equal to 100 percent.

HeLa cells [2] = test: Visual assessment of cytotoxicity, HeLa cells; type: cell-based, human; settings: for rounded up cells in mitosis (visual assessment): HeLa cells (paclitaxel sensitive), 24-well plate (FIG. 5A)
Text: (§2) The cytotoxicity of the compounds were initially assessed visually and by photomicroscopy. Visual inspection of dose response experiments over a protracted time course provides valuable information on the responses of cells to the treatments. Phase contrast microscopy allows one to assess whether cells are undergoing mitotic arrest and/or apoptosis by their altered morphology. Mitotic cells rounded up with smooth membranes and often condensed chromosomes aligned at a metaphase plate were clearly visible. […] Cells were plated in 24-well plates and allowed to attach and stabilize overnight. Cells were then treated with compounds in dose response and photomicrographs were taken at various time points over 2 days. Photographs were assembled in composite figures showing dose response at a given time point.

SK-MEL-28 cells [3] = test: Visual assessment of cytotoxicity, SK-MEL-28 cells; type: cell-based, human; settings: for rounded up cells in mitosis (visual assessment): SK-MEL-28 cells (paclitaxel resistant), 24-well plate (FIG. 5B)
Text: as §2

SK-MEL-28 cells [4] = test: Clonogenic viability assay, SK-MEL-28 cells; type: cell-based, human; settings: SK-MEL-28 cells (paclitaxel resistant); colonies counted after 10 days (FIG. 6B)
Procedure: as §1

HeLa cells [5] = test: AlamarBlue viability assay, HeLa cells; type: cell-based, human; settings: for effectiveness at reducing viability (Alamar Blue), rank among T-8, T-13, T-14: 32 h (FIG. 8A)
Procedure: (§3) The test compositions in Table 1 were tested first for their ability to induce cytotoxicity in dose response curves using an AlamarBlue assay using two cancer cell lines.
(§4) The method used for the viability assay follows. Cells were seeded in 96-well plates for measuring cell growth during treatment by the tested compound using the AlamarBlue fluorescence assay (Biosource International, Inc., Camarillo, Calif.). AlamarBlue (resazurin) is a soluble, non-toxic dye used to monitor the functional electron transport chain of a viable cell by reduction of the dye from its oxidized, non-fluorescent (blue) state to the reduced, fluorescent (pink) state (resorufin). AlamarBlue was added six hours prior to the desired time point in an amount equal to 10% (v/v) of the culture volume, and the plates were returned to the incubator. At the end of the six hour incubation, the amount of AlamarBlue reduction was measured using a fluorometric plate reader ([…]). The plate reader was blanked by reading the fluorescence of cell free medium supplemented with AlamarBlue (States et al., Toxicol. Appl. Pharmacol., Vol. 180, pages 83-91 (2002)). Data are reported as a percentage of the untreated control. Three independent experiments were analyzed and results are shown as average±standard deviation.

A375 cells [6] = test: AlamarBlue viability assay, A375 cells; type: cell-based, human; settings: 32 h (FIG. 8B)
Procedure: as §3, §4

SK-MEL-28 cells [7] = test: AlamarBlue viability assay, SK-MEL-28 cells; type: cell-based, human; settings: 32 h (FIG. 10)
Procedure: as §4

HeLa cells [8] = test: Mitotic index and mitotic catastrophe index determination (mitotic spread assay), HeLa cells; type: cell-based, human; settings: for percent of nuclei present as clean mitotic spreads (mitotic index) / percentage of nuclei presenting as mitotic catastrophe: 60 μM T-8 or 10 μM T-3, 24 h, vs DMSO control, p<0.05 (FIG. 4)
Procedure: (§5) Cells were harvested for mitotic index analysis by trypsinization. Media, wash, and trypsinized cells were collected together and centrifuged to pellet all the cells. Cells were resuspended in 150 mL serum free media and 2.5 mL 0.4% KCl was added. The suspension was incubated for 10 minutes at 37° C. Methanol:acetic acid fixative solution (3:1, v/v) was then added to 2% (v/v) and cells were collected by centrifugation. Cells were resuspended in 2.5 mL fixative solution and fixed at room temperature for 20 minutes. Samples were centrifuged; pellets were resuspended in 0.5 mL fixative and chilled on ice for one hour. Aliquots of the suspensions were dropped onto slides (two slides per sample), air dried, and stained with Wright Giemsa solution (States et al., Toxicol. Appl. Pharmacol., Vol. 180, pages 83-91 (2002); Taylor et al., J. Pharmacol. Exp. Ther., Vol. 318, pages 142-151 (2006)). Slides were examined under a microscope and at least 200 cells were counted on each slide for determination of mitotic index and mitotic catastrophe index. Only cells with distinct interphase nuclei appearance (panel Q from FIG. 2), metaphase spread appearance (panel S from FIG. 2), or mitotic catastrophe appearance (panel T from FIG. 2) were counted. Mitotic index and mitotic catastrophe index were determined using the following formula: Mitotic index=(cells with mitotic spread appearance as exemplified in panel S of FIG. 2)/(total number of counted cells) Mitotic catastrophe index=(cells with mitotic catastrophe appearance as exemplified in panel T of FIG. 2)/(total number of counted cells)
Three independent experiments were analyzed. DAPI stain in mounting media (Molecular Probes) added directly to the slides was used to identify DNA in interphase nuclei, mitotic spreads, mitotic catastrophe, and nuclear fragmentation by fluorescence microscopy.
Test compositions T-1 to T-9 in Table 1 were tested for their ability to induce mitotic arrest using a mitotic spread assay because it can also be used to score for mitotic catastrophe (Taylor et al., J. Pharmacol. Exp. Ther., Vol. 318, Pages 142-151 (2006); Taylor et al., Toxicol. Appl. Pharmacol., Vol. 230, Pages 235-246 (2008)). […] In these tests, a single concentration of each test composition was tested based on cytotoxicity results of FIG. 1 and on results of observational studies to determine the dose and time course of morphological changes induced (data not shown). The concentrations chosen were the minimum concentrations required to induce <10% survival and morphological changes at 16-24 hours.

tGM24 cells [9] = test: Visual assessment of cytotoxicity, tGM24 cells; type: cell-based, human
Text: as §2

GM0637 cells [10] = test: Visual assessment of cytotoxicity, GM0637 cells; type: cell-based; settings: GM0637 (SV40-transformed human skin fibroblasts); 49 h (FIG. 9)
Text: as §2

tGM24 cells [11] = test: AlamarBlue viability assay, tGM24 cells; type: cell-based, human; settings: 32 h (FIG. 10)
Procedure: as §4

GM0637 cells [12] = test: AlamarBlue viability assay, GM0637 cells; type: cell-based, human; settings: 32 h (FIG. 10)
Procedure: as §4

A375 cells [13] = test: Mitotic index and mitotic catastrophe index determination (mitotic spread assay), A375 cells; type: cell-based, human; settings: selected concentrations (1-10 μM), eighteen hours, among T-1 to T-9 (FIG. 3)
Procedure: as §5, with “Aliquots of the suspensions were dropped onto slides (two slides per sample), air dried, and stained with Wright Giemsa solution (States et al., Toxicol. Appl. Pharmacol., Vol. 180, pages 83-91 (2002); Taylor et al., J. Pharmacol. Exp. Ther., Vol. 318, pages 142-151 (2006)).” left out
Three independent experiments were analyzed. […]

[14] = tGM24 normal diploid cells, 49 h (FIG. 9)

| SMILES | colony formation (clonogenic cytotoxicity) (HeLa cells [1]) | rounded up cells in mitosis (visual assessment) (HeLa cells [2]) | rounded up cells in mitosis (visual assessment) (SK-MEL-28 cells [3]) | colony formation (clonogenic cytotoxicity) (SK-MEL-28 cells [4]) | effectiveness at reducing viability (Alamar Blue), rank among T-8, T-13, T-14 (HeLa cells [5]) | effectiveness at reducing viability (Alamar Blue), rank among T-8, T-13, T-14 (A375 cells [6]) | other results |
| --- | --- | --- | --- | --- | --- | --- | --- |
| COc1cccc(NC2=NC3(CCCCC3)N=C(N)N2)c1 [T-11] | decreased colony formation | less effect | less effect |  |  |  | relative effectiveness in decreasing colony formation (HeLa cells [1]; Hela cells, among T-3, T-8, T-10, T-11 (FIG. 6A)): least effective |
| CCCCOc1ccc(NC2=NC3(CCCC3)N=C(N)N2)cc1 [T-10] | decreased colony formation | at slightly higher concentrations | at slightly higher concentrations | decreased colony formation |  |  |  |
| CCc1ccc(OCCOCC(O)CNC2CCCC2)cc1.Cl (racemic) [T-13] |  |  |  |  | followed by T-13 | followed by T-13 |  |
| Cl.OC(CNC1CCCC1)COCCOc1ccc(Br)cc1 (racemic) [T-8] | decreased colony formation |  |  | decreased colony formation | most effective | most effective | cytotoxicity (Alamar Blue), sensitivity compared across cell lines (SK-MEL-28 cells [7]): moderate sensitivity; cytotoxicity (Alamar Blue), sensitivity compared across cell lines (HeLa cells [5]; 32 h (FIG. 10)): most effective; percent of nuclei present as clean mitotic spreads (mitotic index) (HeLa cells [8]): decreased; percentage of nuclei presenting as mitotic catastrophe (HeLa cells [8]): higher percentage; selectivity for carcinoma cells and transformed cells compared to normal diploid cells (tGM24 cells [9]; SK-MEL-28, HeLa, GM0637 vs tGM24, visual assessment (FIG. 9)): selectivity of T-8 for carcinoma cells and transformed cells; accumulation of mitotic cells and apoptotic cells (visual assessment) (tGM24 cells [9]; tGM24 (telomerase immortalized human diploid skin fibroblasts), 49 h (FIG. 9)): not in tGM24; increase in cell number (visual assessment) (tGM24 cells [9]; tGM24, 49 h (FIG. 9)): less apparent; cell death of normal diploid cells (visual assessment) (tGM24 cells [9]; [14]): not observed; growth of normal diploid cells (visual assessment) (tGM24 cells [9]; [14]): appeared to be inhibited; accumulation of mitotic cells and apoptotic cells (visual assessment) (GM0637 cells [10]): accumulated; accumulation of mitotic cells and apoptotic cells (visual assessment) (HeLa cells [2]; HeLa (paclitaxel sensitive human cervical carcinoma), 49 h (FIG. 9)): accumulated; cytotoxicity (Alamar Blue), sensitivity compared across cell lines (tGM24 cells [11]): relatively resistant; accumulation of mitotic cells and apoptotic cells (visual assessment) (SK-MEL-28 cells [3]; SK-MEL-28 (paclitaxel resistant human melanoma), 49 h (FIG. 9)): accumulated; cytotoxicity (Alamar Blue), sensitivity compared across cell lines (GM0637 cells [12]): moderate sensitivity |
| CCCCOc1ccc(NC2=NC3(CCCCC3)N=C(N)N2)cc1 [T-3] | decreased colony formation | accumulate | accumulate | decreased colony formation |  |  | percent of nuclei present as clean mitotic spreads (mitotic index) (HeLa cells [8]): increased; percentage of nuclei presenting as mitotic catastrophe (HeLa cells [8]): higher percentage; mitotic index (HeLa cells [8]; selected concentrations (1-10 μM), twice the concentration used for A375, eighteen hours, among T-1 to T-9 (FIG. 3)): highest mitotic index; mitotic index (A375 cells [13]): highest mitotic index |
| CC(C)NCC(O)COCCOc1ccc(Cl)cc1.Cl (racemic) [T-14] |  |  |  |  | least efficacy | least efficacy |  |
| COc1ccc(NC2=NC3(CCCC3)N=C(N)N2)cc1 [T-12] |  | less effect | less effect |  |  |  |  |
